Source: PMC9304322, “Targeting retinoic acid receptor alpha-corepressor interaction activates chaperone-mediated autophagy and protects against retinal degeneration” (Nature Communications, 2022)
“And” between values parts separate entries of the source, which are not always exact repeats. Identical values can stand only once. Like-named read-outs stand apart in the source and are kept apart here.

Experiment: Pharmacokinetic analysis, plasma and brain;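 on Fig. 3a level, MEAN: plasma concentration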;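 on Fig. 3a level, single animals 1-3: plasma concentration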;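 on Fig. 3b level, MEAN: brain concentration in ng/g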;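 on Fig. 3b level, single animals 1-3: brain concentration in ng/g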
Type: in vivo, ICR (CD-1) male mice
Set-up: Fig. 3a level, single animals 1-3 / Fig. 3a level, MEAN / Fig. 3b level, single animals 1-3 / Fig. 3b level, MEAN: unit not given here
Conditions: for Kp at 0.083 h / Kp at 0.25 h / Kp at 0.5 h / Kp at 1 h / Kp at 2 h / Kp at 4 h / Kp at 8 h / half-life: male, ICR (CD-1), mouse; for half-life: mice
Procedure: ICR (CD-1) male mice were fasted at least three hours and water was available ad libitum before the study. Animals were housed in a controlled environment, target conditions: temperature 18 to 29 °C, relative humidity 30 to 70%. Temperature and relative humidity was monitored daily. An electronic time-controlled lighting system was used to provide a 12 h light/12 h dark cycle. 3 mice for each indicated time point were administered 30 mg/Kg CA39 or CA77 by oral gavage or 1 mg/Kg CA39 or CA77 by intravenous injection using 30% PEG-400, 65% D5W (5% dextrose in water), 5% Tween-80 vehicle. Mice were sacrificed, and brain samples were harvested at […], 0.25 h, 0.5 h, 1 h, 2 h, 4 h, 8 h, 24 h, and analyzed for CA39 or CA77 levels using LC-MS/MS. Pharmacokinetics parameters were calculated using Phoenix WinNonlin 6.3. Experiments performed at SIMM-SERVIER joint Biopharmacy Laboratory.

SMILES: CC(=O)Nc1ccc(C2=Nc3ccc(Cl)cc3OC2)cc1 [CA77]
- Fig. 3a level, MEAN (IV, Time 0.25 h): 30.2
- Fig. 3a level, single animals 1-3 (IV, Time 0.25 h): 27.2 and 43.9 and 19.5
- Fig. 3b level, MEAN (IV, Time 0.25 h): 3653.67
- Fig. 3b level, single animals 1-3 (IV, Time 0.25 h): 3391 and 5173 and 2397
- Fig. 3a level, MEAN (IV, Time 0.5 h): 17.9
- Fig. 3a level, single animals 1-3 (IV, Time 0.5 h): 17.2 and 14.6 and 21.9
- Fig. 3b level, MEAN (IV, Time 0.5 h): 2647.67
- Fig. 3b level, single animals 1-3 (IV, Time 0.5 h): 2198 and 2795 and 2950
- Fig. 3a level, MEAN (IV, Time 1 h): 17.4333
- Fig. 3a level, single animals 1-3 (IV, Time 1 h): 15.5 and 21.5 and 15.3
- Fig. 3b level, MEAN (IV, Time 1 h): 2521.11
- Fig. 3b level, single animals 1-3 (IV, Time 1 h): 2758.39 and 2650.88 and 2154.07
- Fig. 3a level, MEAN (IV, Time 2 h): 4.363
- Fig. 3a level, single animals 1-3 (IV, Time 2 h): 7.54 and 1.71 and 3.84
- Fig. 3b level, MEAN (IV, Time 2 h): 658.667
- Fig. 3b level, single animals 1-3 (IV, Time 2 h): 773 and 411 and 792
- Fig. 3a level, MEAN (IV, Time 4 h): 0.3767
- Fig. 3a level, single animals 1-3 (IV, Time 4 h): BLQ and 0.597 and 0.533
- Fig. 3b level, MEAN (IV, Time 4 h): 104
- Fig. 3b level, single animals 1-3 (IV, Time 4 h): 76 and 112 and 124
- Fig. 3a level, MEAN (IV, Time 8 h): 0
- Fig. 3a level, single animals 1-3 (IV, Time 8 h): BLQ
- Fig. 3b level, MEAN (IV, Time 8 h): 25.5467
- Fig. 3b level, single animals 1-3 (IV, Time 8 h): 7.74 and 27.5 and 41.4
- Fig. 3a level, MEAN (IV, Time 24 h): 0
- Fig. 3a level, single animals 1-3 (IV, Time 24 h): BLQ
- Fig. 3b level, MEAN (IV, Time 24 h): 3
- Fig. 3b level, single animals 1-3 (IV, Time 24 h): 2.68 and 4.25 and 2.07
- B/P, Brian/Plasma (P.O., Time 0.25 h, individual animals): 60.8033 and 75.265
- B/P, Brian/Plasma (P.O., Time 0.5 h, individual animals): 154.065 and 93.9339
- B/P, Brian/Plasma (P.O., Time 1 h, individual animals): 105.807 and 124.313
- B/P, Brian/Plasma (P.O., Time 2 h, individual animals): 113.451 and 103.8
- B/P, Brian/Plasma (P.O., Time 4 h, individual animals): 108.623 and 135.516
- B/P, Brian/Plasma (P.O., Time 8 h, individual animals): 133.365 and 145.604
- Fig. 3b level, MEAN (PO, Time 0.25 h): 9743
- Fig. 3b level, single animals 1-3 (PO, Time 0.25 h): 7893 and 7279 and 14057
- Fig. 3b level, MEAN (PO, Time 0.5 h): 16210.7
- Fig. 3b level, single animals 1-3 (PO, Time 0.5 h): 13095 and 20145 and 15392
- Fig. 3b level, MEAN (PO, Time 1 h): 30964
- Fig. 3b level, single animals 1-3 (PO, Time 1 h): 31243 and 27952 and 33697
- Fig. 3a level, MEAN (PO, Time 2 h): 278
- Fig. 3a level, single animals 1-3 (PO, Time 2 h): 318 and 259 and 257
- Fig. 3b level, MEAN (PO, Time 2 h): 29203.3
- Fig. 3b level, single animals 1-3 (PO, Time 2 h): 31592 and 29359 and 26659
- Fig. 3a level, MEAN (PO, Time 4 h): 203.667
- Fig. 3a level, single animals 1-3 (PO, Time 4 h): 163 and 258 and 190
- Fig. 3b level, MEAN (PO, Time 4 h): 24280.3
- Fig. 3b level, single animals 1-3 (PO, Time 4 h): 19042 and 28003 and 25796
- Fig. 3a level, MEAN (PO, Time 8 h): 44.4333
- Fig. 3a level, single animals 1-3 (PO, Time 8 h): 55.2 and 45.3 and 32.8
- Fig. 3b level, MEAN (PO, Time 8 h): 5756
- Fig. 3b level, single animals 1-3 (PO, Time 8 h): 6451 and 6039 and 4778
- Fig. 3a level, MEAN (PO, Time 24 h): 0
- Fig. 3a level, single animals 1-3 (PO, Time 24 h): 0
- Fig. 3b level, MEAN (PO, Time 24 h): 10.0733
- Fig. 3b level, single animals 1-3 (PO, Time 24 h): 18.9 and 6.07 and 5.25
- B/P, Brian/Plasma (i.v., Time 0.083 h, individual animals): 71.1336 and 48.9012
- B/P, Brian/Plasma (i.v., Time 0.25 h, individual animals): 117.877 and 123.138
- B/P, Brian/Plasma (i.v., Time 0.5 h, individual animals): 191.891 and 134.551
- B/P, Brian/Plasma (i.v., Time 1 h, individual animals): 123.104 and 140.908
- B/P, Brian/Plasma (i.v., Time 2 h, individual animals): 102.433 and 239.982 and 206.167
- B/P, Brian/Plasma (i.v., Time 4 h, individual animals): 232.498
- Kp at 0.083 h (brain, iv, 1 mg/Kg, i.v., Time 0.083 h, individual animals, read-out: B/P, Brian/Plasma): 71.3
- Kp at 0.083 h (brain, iv, 1 mg/Kg, i.v., Time 0.083 h, mean, read-out: B/P, Brian/Plasma, Mean): 71.2
- Kp at 0.25 h (brain, iv, 1 mg/Kg, i.v., Time 0.25 h, individual animals, read-out: B/P, Brian/Plasma): 125
- Kp at 0.25 h (brain, iv, 1 mg/Kg, i.v., Time 0.25 h, mean, read-out: B/P, Brian/Plasma, Mean): 122
- Kp at 0.5 h (brain, iv, 1 mg/Kg, i.v., Time 0.5 h, individual animals, read-out: B/P, Brian/Plasma): 128
- Kp at 0.5 h (brain, iv, 1 mg/Kg, i.v., Time 0.5 h, mean, read-out: B/P, Brian/Plasma, Mean): 151
- Kp at 1 h (brain, iv, 1 mg/Kg, i.v., Time 1 h, individual animals, read-out: B/P, Brian/Plasma): 178
- Kp at 1 h (brain, iv, 1 mg/Kg, i.v., Time 1 h, mean, read-out: B/P, Brian/Plasma, Mean): 159
- Kp at 2 h (brain, iv, 1 mg/Kg, i.v., Time 2 h, mean, read-out: B/P, Brian/Plasma, Mean): 183
- Kp at 4 h (brain, iv, 1 mg/Kg, i.v., Time 4 h, individual animals, read-out: B/P, Brian/Plasma): 188
- Kp at 4 h (brain, iv, 1 mg/Kg, i.v., Time 4 h, mean, read-out: B/P, Brian/Plasma, Mean): 210
- Kp at 0.25 h (brain, po, 30 mg/Kg, P.O., Time 0.25 h, individual animals, read-out: B/P, Brian/Plasma): 64.5
- Kp at 0.25 h (brain, po, 30 mg/Kg, P.O., Time 0.25 h, mean, read-out: B/P, Brian/Plasma, Mean): 66.9
- Kp at 0.5 h (brain, po, 30 mg/Kg, P.O., Time 0.5 h, individual animals, read-out: B/P, Brian/Plasma): 122
- Kp at 0.5 h (brain, po, 30 mg/Kg, P.O., Time 0.5 h, mean, read-out: B/P, Brian/Plasma, Mean): 123
- Kp at 1 h (brain, po, 30 mg/Kg, P.O., Time 1 h, individual animals, read-out: B/P, Brian/Plasma): 125
- Kp at 1 h (brain, po, 30 mg/Kg, P.O., Time 1 h, mean, read-out: B/P, Brian/Plasma, Mean): 118
- Kp at 2 h (brain, po, 30 mg/Kg, P.O., Time 2 h, individual animals, read-out: B/P, Brian/Plasma): 99.4
- Kp at 2 h (brain, po, 30 mg/Kg, P.O., Time 2 h, mean, read-out: B/P, Brian/Plasma, Mean): 106
- Kp at 4 h (brain, po, 30 mg/Kg, P.O., Time 4 h, individual animals, read-out: B/P, Brian/Plasma): 117
- Kp at 4 h (brain, po, 30 mg/Kg, P.O., Time 4 h, mean, read-out: B/P, Brian/Plasma, Mean): 120
- Kp at 8 h (brain, po, 30 mg/Kg, P.O., Time 8 h, individual animals, read-out: B/P, Brian/Plasma): 117
- Kp at 8 h (brain, po, 30 mg/Kg, P.O., Time 8 h, mean, read-out: B/P, Brian/Plasma, Mean): 132
- half-life (brain, IV 1 mg/kg, read-out: Half-life in brain (converted)): 1.8 h
- half-life (brain, PO 30 mg/kg, read-out: Half-life in brain (converted)): 4.2 h
- half-life (plasma, IV 1 mg/kg, read-out: Half-life in plasma (converted)): 0.6 h
- half-life (plasma, PO 30 mg/kg, read-out: Half-life in plasma (converted)): 2.2 h
